{"source": "patent US12134769B2", "about": "“MicroRNA-198 as a tumor suppressor in ovarian cancer” (Baylor College of Medicine, priority 2011, dated 2024)", "key": {"PBX-1 3′UTR": {"system": "PBX-1 3′UTR", "assay": "Dual-luciferase reporter assay, PBX-1 3′UTR", "type": "cell-based", "conditions": "following miR-198 transfection/overexpression; firefly/Renilla ratio, 24 h", "description": "A luciferase construct containing the first 491 bases of the PBX-1 3′UTR was purchased from Switchgear Genomics. Two mutant PBX-1 3′UTR reporters were subsequently generated using the Stratagene Quickchange Site-directed Mutagenesis kit, with the WT miR-198 binding site seed region either altered from TCTGGA to AAGCTT (a HindIII restriction site) or deleted entirely (FIG. 10).\n(§1) Dual luciferase assays were performed according to the manufacturer's instruction. Luciferase expression analysis was performed at 24 h using the Dual-luciferase kit (Promega) and Sirius Luminometer (Berthold Detection System). Results are presented as the ratio of firefly to Renilla luciferase activities, normalized to controls.\nThe PBX-1 3′UTR region was cloned into the pSGG-3UTR vector (based on pGL4.11 vector with a MCS added after luciferase) after the reporter gene, firefly luciferase, whose expression is regulated by the SV40 promoter. A separate reporter for Renilla luciferase under the control of the CMV promoter was utilized to normalize for transfection efficiency. The identity of the 3′UTR sequence including the predicted miR-198 binding site was confirmed using the following primers: Fwd: […] [SEQ ID NO. 111], Rev: […]. [SEQ ID NO. 112]"}, "VCP 3′UTR": {"system": "VCP 3′UTR", "assay": "Dual-luciferase reporter assay, VCP 3′UTR", "type": "cell-based", "conditions": "following miR-198 overexpression; firefly/Renilla ratio, 24 h", "source_text": "For MSLN, six constructs were generated: 400 or 600 bp segments containing the WT sequence or specific 3-nucleotide mutations in the seed region of each miR-198 binding site were synthesized by GenScript and subcloned into the pEZX-MT01 3′UTR construct from Genecopoeia at Xba1 and BamH1 restriction sites such that they were inserted after the luciferase gene (FIG. 10). The same process was used for the VCP reporter constructs containing the full-length VCP 3′UTR (FIG. 10).\nas §1"}, "AsPC1 cells [1]": {"system": "AsPC1 cells", "assay": "Stable miR-198 overexpression, expression of network factors", "type": "cell-based, human", "description": "(§2) Western blots were performed as previously described (Li et al., 2008). Membranes were probed with: anti-MSLN monoclonal antibody (1:1000) (Abcam); PBX-1 polyclonal antibody (1:1000) and Caspase 3 antibody (1:1000) (Cell Signaling); OCT-2 polyclonal antibody (1:400), and VCP polyclonal antibody (1:200) (Santa Cruz Biotechnology); or anti-β-actin, Tubulin, LaminA or GAPDH antibodies (1:10,000) (Sigma Aldrich). Secondary incubation was performed with horseradish peroxidase-linked secondary antibody (1:2,000) (anti-mouse, anti-goat or anti-rabbit) (Cell Signaling).\n(§3) MSLN-overexpressing stable cells (or empty vector controls) were selected in MIA PaCa-2 cells or HPDE cells (MIA-MSLN, HPDE-MSLN) or vector (MIA-V, HPDE-V) using retrovirus vectors expressing puromycin resistance (Origene) with 0.5 μg/mL of puromycin added into the medium as previously described (Zhang et al.). Stable cells overexpressing miR-198 or vector control were generated in AsPC-1 (AsPC-1-miR-198, AsPC-1-miR-Ctrl), MIA-MSLN (MIA-MSLN-miR-198, MIA-MSLN-miR-Ctrl), MIA-V (MIA-V-miR-198, MIA-V-miR-Ctrl), and HPDE cells (HPDE-miR-198, HPDE-miR-Ctrl) using the Lenti-miR miRNA Precursor Clone Collection (SBI). The miRZip Lentivector collection from SBI was used to stably knock down miR-198 in MIA-PaCa2 (MIA-V-Zip-198, MIA-V-Zip-Ctrl) and HPDE (HPDE-Zip-198, HPDE-Zip-Ctrl) cells.\n(§4) Differential expression of 95 miRNAs chosen for their potential roles in cancer, cell development, and apoptosis was analyzed by RT-PCR using the QuantiMir System from SBI System Biosciences in both MIA-V and MIA-MSLN cells. The array plate also included the U6 transcript as a normalization signal. cDNAs from different cell lines and tissue samples were mixed with SYBR® Green Mastermix (Bio-Rad Laboratories) plus the universal reverse primer. Specific primers (1 μl) were added to each well of the qPCR plate. Expression levels of each mature miRNA were evaluated using comparative threshold cycle (Ct) method as normalized to that of U6 (2—ΔCt). The expression level of miR-198 was measured in all subsequent experiments using the same method. Real-time RT PCR was performed as previously described for MSLN, ZEB1, PBX-1, and VCP (Li et al., 2008)."}, "MIA-MSLN cells": {"system": "MIA-MSLN cells", "assay": "Stable miR-198 overexpression, expression of network factors", "type": "cell-based, human", "conditions": "miR-198 overexpression in MIA-MSLN cells", "description": "as §2, §3, §4"}, "AsPC1 cells [2]": {"system": "AsPC1 cells", "assay": "Apoptosis assay (TUNEL) after TNF-α", "type": "cell-based, human", "conditions": "AsPC1-miR-198 cells, TUNEL after TNF-α treatment", "description": "(§5) Apoptosis induction was determined using western blotting for Caspase 3 cleavage and confirmed by labeling DNA breaks using a terminal deoxynucleotidyltransferase dUTP nick end labeling (TUNEL) assay with the APO-DIRECT Kit (BD Biosciences) following 96 h of treatment (24 h serum starvation followed by 72 h of treatment with 20 ng/ml of TNF-α). Briefly, cells were plated in either 10% FBS media or serum-starved for 96 h, at which time 1×10^6 cells were harvested using trypsin-EDTA. After centrifugation, the pellets were washed twice with PBS, then resuspended in 1% paraformaldehyde in PBS and incubated on ice for 45 minutes. After several washes, the cell pellet again was resuspended in PBS/ethanol, incubated on ice for 30 minutes, and stored at −20° C. Cell samples were then pelleted, washed, and resuspended in 50 μL of DNA labeling solution containing a reaction buffer, terminal deoxynucleotidyl transferase enzyme, FITC-labeled deoxyuridine triphosphate nucleotides, and distilled water. After a 60-minute incubation at 37° C., cells were again washed, pelleted, and resuspended in 500 μl of propidium iodine/RNase staining buffer. Samples were then analyzed by flow cytometry (fluorescence-activated cell sorting) using a FACSCalibur (Becton Dickinson, Franklin Lakes, NJ). Data was further analyzed using the software FLOWJOW ver. 6.1.1 (Tree Star Inc.)."}, "MIA-V cells": {"system": "MIA-V cells", "assay": "Apoptosis assay (TUNEL) after TNF-α", "type": "cell-based, human", "conditions": "TUNEL after TNF-α treatment", "description": "as §5"}, "HPDE cells": {"system": "HPDE cells", "assay": "Migration assay", "type": "cell-based", "conditions": "72 h", "description": "Cell migration was determined with a modified Boyden chamber assay as described previously (Li et al., 2008). For invasion assays, Matrigel basement membrane matrix (BD Biosciences) was used by adding 100 ul of 1 mg/ml Matrigel to the migration chamber inserts prior to plating of the cells (Li et al., 2008, Bharadwaj)."}}}
{"substance": "miR-198: microRNA-198, SEQ ID NO: 1 gguccagaggggagauagg; used as transfected precursors (Ambion) or Lenti-miR stable overexpression (GGUCCAGAGGGGAGAUAGG; listed as RNA, chemistry not given here; listed as Homo sapiens)", "values": [{"measurement": "reduction in PBX-1 3′UTR luciferase expression", "setting": "PBX-1 3′UTR", "value": 65, "unit": "%"}, {"measurement": "decrease in VCP 3′UTR luciferase activity", "setting": "VCP 3′UTR", "value": "~70", "unit": "%"}, {"measurement": "VCP mRNA levels downregulated", "setting": "AsPC1 cells [1]; ASPC1 cells following miR-198 overexpression, FIG. 10J", "value": "~5", "unit": "fold"}, {"measurement": "VCP expression downregulated", "setting": "AsPC1 cells [1]; AsPC1 cells following miR-198 overexpression, FIG. 3E", "value": "~50", "unit": "fold"}, {"measurement": "PBX-1 mRNA and protein expression", "setting": "AsPC1 cells [1]; miR-198 overexpression in AsPC1 cells", "value": "almost undetectable"}, {"measurement": "MSLN expression at the protein level", "setting": "MIA-MSLN cells", "value": "almost complete reduction of MSLN expression"}, {"measurement": "MSLN mRNA expression levels", "setting": "MIA-MSLN cells", "value": "partial decrease"}, {"measurement": "PBX-1 mRNA and protein expression", "setting": "MIA-MSLN cells", "value": "almost undetectable"}, {"measurement": "VCP mRNA levels", "setting": "MIA-MSLN cells; FIG. 10I", "value": "reduces VCP down to MIA-V cell levels"}, {"measurement": "increase in number of cells undergoing apoptosis over controls", "setting": "AsPC1 cells [2]", "value": "> 90", "unit": "%"}, {"measurement": "apoptotic cells", "setting": "MIA-V cells", "value": "~75", "unit": "%"}, {"measurement": "migration", "setting": "HPDE cells", "value": "did not seem to have an effect"}]}
